These results are taken from PubChem BioAssay AID330 (DTP/NCI, 2004).

This test concerns P388 leukemia ip, CD2F1 mice, survival T/C. The test can be described thus: NCI In Vivo Anticancer Drug Screen. Data for tumor model P388 Leukemia (intraperitoneal) in CD2F1 (CDF1) mice. Conditions: endpoint: median survival time, higher = longer survival. In a few lines: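 Mice carrying the transplanted tumor received test compound or vehicle. Survival was recorded in each group, and the value is the treated-group measurement divided by that of the vehicle-treated control group.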

[1] abbreviates: dose: 50.0 mg/kg/injection, schedule: Q01DX009 (ip), vehicle: saline.
The mark [2] stands for this setting: dose: 12.5 mg/kg/injection, schedule: Q01DX009 (ip), vehicle: Klucel (hydroxypropylcellulose) (HPC).
[3] abbreviates: dose: 25.0 mg/kg/injection, schedule: Q01DX009 (ip), vehicle: Klucel (hydroxypropylcellulose) (HPC).
Where [4] appears, read: dose: 50.0 mg/kg/injection, schedule: Q01DX009 (ip), vehicle: saline with Tween-80.
Where [5] appears, read: dose: 100.0 mg/kg/injection, schedule: Q01DX009 (ip), vehicle: saline with Tween-80.
Setting [6] is: dose: 200.0 mg/kg/injection, schedule: Q01DX009 (ip), vehicle: saline with Tween-80.
Setting [7] is: dose: 12.5 mg/kg/injection, schedule: Q01DX009 (ip), vehicle: saline with Tween-80.
Where [8] appears, read: dose: 25.0 mg/kg/injection, schedule: Q01DX009 (ip), vehicle: saline with Tween-80.
The mark [9] stands for this setting: dose: 50.0 mg/kg/injection, schedule: Q01DX009 (ip), vehicle: Klucel (hydroxypropylcellulose) (HPC).
Where [10] appears, read: dose: 100.0 mg/kg/injection, schedule: Q01DX009 (ip), vehicle: Klucel (hydroxypropylcellulose) (HPC).
Where [11] appears, read: dose: 200.0 mg/kg/injection, schedule: Q01DX009 (ip), vehicle: Klucel (hydroxypropylcellulose) (HPC).

Values joined by “and” are separate entries in the source; they are usually repeats but may differ in a detail not shown here. Identical values can stand only once. Inconclusive results and toxic doses are left out.

`Cc1c2ccncc2c(CNC(=O)CCCC(=O)NCc2c3cnccc3c(C)c3c2c2ccccc2n3C)c2c3ccccc3n(C)c12`: the T/C reads like this: (dose: 6.25 mg/kg/injection, schedule: Q04DX002 (ip), vehicle: saline with Tween-80) 104 % of control; (dose: 12.5 mg/kg/injection, schedule: Q04DX002 (ip), vehicle: saline with Tween-80) 104 % of control; (dose: 25.0 mg/kg/injection, schedule: Q04DX002 (ip), vehicle: saline with Tween-80) 102 % of control; (dose: 50.0 mg/kg/injection, schedule: Q04DX002 (ip), vehicle: saline with Tween-80) 104 % of control.

Take `CCCCCCCCCCC[N+]1([O-])CCOCC1`: the T/C (dose: 12.5 mg/kg/injection, schedule: Q01DX009 (ip), vehicle: saline) is 101 % of control; the T/C (dose: 25.0 mg/kg/injection, schedule: Q01DX009 (ip), vehicle: saline) is 99 % of control; the T/C under setting [1] is 99 % of control and 89 % of control.

With `N#CC(O)COc1nsnc1N1CCOCC1` (configuration not stated), the T/C is 108 % of control (dose: 6.25 mg/kg/injection, schedule: Q01DX009 (ip), vehicle: Klucel (hydroxypropylcellulose) (HPC)); 106 % of control under setting [2]; 105 % of control under setting [3].

On to `C=C1C(=O)OC2/C=C(\C)C(OC(C)=O)C/C=C(\C)CC(OC(=O)/C(=C/CO)CO)C12` (configuration not stated), for which the T/C is 99 % of control (dose: 100.0 mg/kg/injection, schedule: Q01DX001 (ip), vehicle: Klucel (hydroxypropylcellulose) (HPC)); 99 % of control (dose: 200.0 mg/kg/injection, schedule: Q01DX001 (ip), vehicle: Klucel (hydroxypropylcellulose) (HPC)); 123 % of control (dose: 400.0 mg/kg/injection, schedule: Q01DX001 (ip), vehicle: Klucel (hydroxypropylcellulose) (HPC)).

As for `COC(=O)C1C(=O)CC2C(C(=O)OC)C(=O)CC12` (configuration not stated), the T/C was 99 % of control under setting [4], 95 % of control under setting [5] and 98 % of control under setting [6].

As for `COc1ccn(CC(C)=O)c(=O)n1`, the T/C reads like this: (dose: 60.0 mg/kg/injection, schedule: Q01DX005 (ip), vehicle: saline) 100 % of control; (dose: 120.0 mg/kg/injection, schedule: Q01DX005 (ip), vehicle: saline) 100 % of control; (dose: 240.0 mg/kg/injection, schedule: Q01DX005 (ip), vehicle: saline) 100 % of control.

Consider `Cc1cc(Nc2ccc(N(CCCl)CCCl)cc2)cc(C)c1O`, for which the T/C is 151 % of control (dose: 6.25 mg/kg/injection, schedule: Q01DX009 (ip), vehicle: saline with Tween-80); 154 % of control and 169 % of control under setting [7]; 169 % of control and 175 % of control under setting [8].

On to `CCCCCCCCCOCC(=O)O`, for which the T/C by setting is: under setting [4], 100 % of control; under setting [5], 99 % of control; under setting [6], 95 % of control.

On to `CC1COn2c1nc1ccccc1c2=O` (configuration not stated), for which the T/C was 104 % of control under setting [9], 103 % of control under setting [10] and 104 % of control under setting [11].

For `N#Cc1ccc(-c2nc3ncnc(N)c3[nH]2)cc1`, the T/C is, setting by setting: (dose: 60.0 mg/kg/injection, schedule: Q01DX005 (ip), vehicle: Klucel (hydroxypropylcellulose) (HPC)) 92 % of control; (dose: 120.0 mg/kg/injection, schedule: Q01DX005 (ip), vehicle: Klucel (hydroxypropylcellulose) (HPC)) 90 % of control; (dose: 240.0 mg/kg/injection, schedule: Q01DX005 (ip), vehicle: Klucel (hydroxypropylcellulose) (HPC)) 91 % of control.

With `CCCCCN(C)c1ncnc2[nH]ncc12`, the T/C by setting is: (dose: 25.0 mg/kg/injection, schedule: Q01DX005 (ip), vehicle: saline) 94 % of control; (dose: 50.0 mg/kg/injection, schedule: Q01DX005 (ip), vehicle: saline) 95 % of control; (dose: 100.0 mg/kg/injection, schedule: Q01DX005 (ip), vehicle: saline) 100 % of control.

In the case of `COc1cc2c(cc1OC)C1CC(=O)C(CC(C)C)CN1CC2` (configuration not stated), the T/C runs as follows: under setting [2], 100 % of control; under setting [3], 100 % of control; under setting [9], 103 % of control.

In the case of `C/C=C/Cc1n[nH]c(=O)c2c(C)[nH]nc12`, the T/C was 105 % of control (dose: 25.0 mg/kg/injection, schedule: Q04DX002 (ip), vehicle: Klucel (hydroxypropylcellulose) (HPC)); 103 % of control (dose: 50.0 mg/kg/injection, schedule: Q04DX002 (ip), vehicle: Klucel (hydroxypropylcellulose) (HPC)); 104 % of control and 90 % of control (dose: 100.0 mg/kg/injection, schedule: Q04DX002 (ip), vehicle: Klucel (hydroxypropylcellulose) (HPC)).

For the compound `CN1C(=O)CC(=O)N(C)P1(=O)Oc1ccccc1`, the T/C (dose: 100.0 mg/kg/injection, schedule: Q04DX002 (ip), vehicle: saline) was 101 % of control; the T/C (dose: 200.0 mg/kg/injection, schedule: Q04DX002 (ip), vehicle: saline) is 101 % of control; the T/C (dose: 400.0 mg/kg/injection, schedule: Q04DX002 (ip), vehicle: saline) is 101 % of control.

With `C=C1C(=O)OC2/C=C(\C)CC/C=C(\C(=O)O)CC/C=C(/C)CCC12` (configuration not stated), the T/C (dose: 5.0 mg/kg/injection, schedule: Q01DX005 (ip), vehicle: Klucel (hydroxypropylcellulose) (HPC)) is 100 % of control; the T/C (dose: 10.0 mg/kg/injection, schedule: Q01DX005 (ip), vehicle: Klucel (hydroxypropylcellulose) (HPC)) is 117 % of control; the T/C (dose: 20.0 mg/kg/injection, schedule: Q01DX005 (ip), vehicle: Klucel (hydroxypropylcellulose) (HPC)) is 118 % of control; the T/C (dose: 40.0 mg/kg/injection, schedule: Q01DX005 (ip), vehicle: Klucel (hydroxypropylcellulose) (HPC)) was 115 % of control; the T/C (dose: 80.0 mg/kg/injection, schedule: Q01DX005 (ip), vehicle: Klucel (hydroxypropylcellulose) (HPC)) was 115 % of control.

Take `CC(C)SC(=S)Nc1ccc(F)cc1`: the T/C is, setting by setting: (dose: 50.0 mg/kg/injection, schedule: Q01DX009 (ip), vehicle: suspension in saline) 101 % of control; (dose: 100.0 mg/kg/injection, schedule: Q01DX009 (ip), vehicle: suspension in saline) 101 % of control; (dose: 200.0 mg/kg/injection, schedule: Q01DX009 (ip), vehicle: suspension in saline) 107 % of control.

Regarding `CSc1ccccc1[As](c1ccccc1)c1ccccc1SC`, the T/C was 90 % of control under setting [9], 92 % of control under setting [10] and 95 % of control under setting [11].

For `CCOC(=O)c1ccc(NC(CCC(C#N)(C#N)CCC(=NC(C)(C)C)Nc2ccc(C(=O)OCC)cc2)=NC(C)(C)C)cc1`, the T/C reads like this: under setting [4], 95 % of control; under setting [5], 95 % of control; under setting [6], 96 % of control.

With `N#CC(=Nc1ccc(F)cc1F)C1=C(O)c2ccccc2C1=O`, the T/C is, setting by setting: (dose: 12.5 mg/kg/injection, schedule: Q01DX005 (ip), vehicle: saline with Tween-80) 97 % of control; (dose: 25.0 mg/kg/injection, schedule: Q01DX005 (ip), vehicle: saline with Tween-80) 105 % of control; (dose: 50.0 mg/kg/injection, schedule: Q01DX005 (ip), vehicle: saline with Tween-80) 100 % of control.

Take `O=S(=O)(Cl)C(F)(F)C(F)(F)C(F)(F)C(F)(F)C(F)(F)C(F)(F)F`: the T/C runs as follows: under setting [7], 100 % of control; under setting [8], 104 % of control; under setting [4], 100 % of control and 93 % of control; under setting [5], 112 % of control.

As to `Cc1cccc(=O)n1C`, the T/C reads like this: under setting [1], 102 % of control; (dose: 100.0 mg/kg/injection, schedule: Q01DX009 (ip), vehicle: saline) 102 % of control; (dose: 200.0 mg/kg/injection, schedule: Q01DX009 (ip), vehicle: saline) 100 % of control.

Turning to `CC(=O)c1cccc(NC(=O)Nc2nccs2)c1`, the T/C was 102 % of control under setting [3], 110 % of control under setting [9], 101 % of control under setting [10] and 105 % of control under setting [11].

Turning to `C(/C=C/c1ccccc1)=C1SCCCS1`, the T/C by setting is: (dose: 100.0 mg/kg/injection, schedule: Q04DX003 (ip), vehicle: saline with Tween-80) 94 % of control; (dose: 200.0 mg/kg/injection, schedule: Q04DX003 (ip), vehicle: saline with Tween-80) 103 % of control; (dose: 400.0 mg/kg/injection, schedule: Q04DX003 (ip), vehicle: saline with Tween-80) 90 % of control.

With `CC(=O)C1=CN(C)c2ccccc2S1`, the T/C was 103 % of control (dose: 50.0 mg/kg/injection, schedule: Q01DX005 (ip), vehicle: Klucel (hydroxypropylcellulose) (HPC)); 99 % of control (dose: 100.0 mg/kg/injection, schedule: Q01DX005 (ip), vehicle: Klucel (hydroxypropylcellulose) (HPC)); 108 % of control (dose: 200.0 mg/kg/injection, schedule: Q01DX005 (ip), vehicle: Klucel (hydroxypropylcellulose) (HPC)).
